Results from the supplement of paper PMC10307832.

Key:
Assay in all cases: relative viability (nuclei count vs DMSO), 5 days (fraction); higher = more cells survive
Metformin + Navitoclax = compound: CN(C)C(=N)NC(=N)N [Metformin] + CC1(C)CCC(c2ccc(Cl)cc2)=C(CN2CCN(c3ccc(C(=O)NS(=O)(=O)c4ccc(N[C@H](CCN5CCOCC5)CSc5ccccc5)c(S(=O)(=O)C(F)(F)F)c4)cc3)CC2)C1 [Navitoclax] (partner 0.5 µM)
Outline: (§1)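 After 5 days of treatment, lung cancer cells in 1536-well plates were fixed and stained in a single step (final 0.05% Triton X-100, 1% formaldehyde, 1 ug/ml Hoechst) and their nuclei counted on 4× images. Treatment had been applied by pin tool the day after seeding as one drug alone or as a fixed anchor-drug dose with five library-drug doses (not always all listed) in √10 steps. Relative viability is the nuclei count of treated wells divided by that of vehicle wells, and values are medians of duplicate plates.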

Apatinib + Vorinostat = compound: N#CC1(c2ccc(NC(=O)c3cccnc3NCc3ccncc3)cc2)CCCC1 [Apatinib] + O=C(CCCCCCC(=O)Nc1ccccc1)NO [Vorinostat] (partner 1 µM)
Outline: as §1

Metformin + Bortezomib = compound: CN(C)C(=N)NC(=N)N [Metformin] + CC(C)C[C@H](NC(=O)[C@H](Cc1ccccc1)NC(=O)c1cnccn1)B(O)O [Bortezomib] (partner 0.002 µM)
Outline: as §1

Apatinib + Tozasertib = compound: N#CC1(c2ccc(NC(=O)c3cccnc3NCc3ccncc3)cc2)CCCC1 [Apatinib] + Cc1cc(Nc2cc(N3CCN(C)CC3)nc(Sc3ccc(NC(=O)C4CC4)cc3)n2)n[nH]1 [Tozasertib] (partner 0.1 µM)
Outline: as §1

With NCI-H460 the relative viability (Metformin + Navitoclax; first compound 31.62 µM) was 1.22, the relative viability (Metformin + Navitoclax; first compound 100 µM) was 1.16 and the relative viability (Metformin + Navitoclax; first compound 316.23 µM) was 1.02. The relative viability (Metformin + Navitoclax; first compound 1000 µM) was 1.14, the relative viability (Apatinib + Vorinostat; first compound 0.08 µM) was 0.741 and the relative viability (Apatinib + Vorinostat; first compound 0.253 µM) was 0.73. The relative viability (Apatinib + Vorinostat; first compound 0.8 µM) was 0.623, the relative viability (Apatinib + Vorinostat; first compound 2.53 µM) was 0.577 and the relative viability (Apatinib + Vorinostat; first compound 8 µM) was 0.417. For the same cell line, the relative viability (Metformin + Bortezomib; first compound 31.62 µM) was 1.12, the relative viability (Metformin + Bortezomib; first compound 100 µM) was 1.11 and the relative viability (Metformin + Bortezomib; first compound 316.23 µM) was 1.06. The relative viability (Metformin + Bortezomib; first compound 1000 µM) was 1.19, the relative viability (Apatinib + Tozasertib; first compound 0.08 µM) was 0.576 and the relative viability (Apatinib + Tozasertib; first compound 0.253 µM) was 0.51. The relative viability (Apatinib + Tozasertib; first compound 0.8 µM) was 0.223, the relative viability (Apatinib + Tozasertib; first compound 2.53 µM) was 0.0517 and the relative viability (Apatinib + Tozasertib; first compound 8 µM) was 0.053.
